Like-named read-outs stand apart in the source and are kept apart here.
Tests used:
[1] = target: EGFR del19/T790M/C797S (Homo sapiens, UniProt P00533, C797S/DEL746-750/T790M); test: Biochemical EGFR kinase assay (Lance Ultra TR-FRET), triple mutant del19/T790M/C797S
Outline: (§1)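 Kinase activity is measured by TR-FRET phosphopeptide detection. Compounds span 0.003 μM to 10 μM; the 1 h reaction at room temperature is quenched with EDTA, then labelled antibody (2 nM) is incubated 60 min before reading.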

[2] = target: EGFR L858R/T790M/C797S (Homo sapiens, UniProt P00533, C797S/L858R/T790M); test: Biochemical EGFR kinase assay (Lance Ultra TR-FRET), triple mutant L858R/T790M/C797S
EGFR L858R/T790M/C797S, sequence (P00533 25-1210 T790M/C797S/L858R): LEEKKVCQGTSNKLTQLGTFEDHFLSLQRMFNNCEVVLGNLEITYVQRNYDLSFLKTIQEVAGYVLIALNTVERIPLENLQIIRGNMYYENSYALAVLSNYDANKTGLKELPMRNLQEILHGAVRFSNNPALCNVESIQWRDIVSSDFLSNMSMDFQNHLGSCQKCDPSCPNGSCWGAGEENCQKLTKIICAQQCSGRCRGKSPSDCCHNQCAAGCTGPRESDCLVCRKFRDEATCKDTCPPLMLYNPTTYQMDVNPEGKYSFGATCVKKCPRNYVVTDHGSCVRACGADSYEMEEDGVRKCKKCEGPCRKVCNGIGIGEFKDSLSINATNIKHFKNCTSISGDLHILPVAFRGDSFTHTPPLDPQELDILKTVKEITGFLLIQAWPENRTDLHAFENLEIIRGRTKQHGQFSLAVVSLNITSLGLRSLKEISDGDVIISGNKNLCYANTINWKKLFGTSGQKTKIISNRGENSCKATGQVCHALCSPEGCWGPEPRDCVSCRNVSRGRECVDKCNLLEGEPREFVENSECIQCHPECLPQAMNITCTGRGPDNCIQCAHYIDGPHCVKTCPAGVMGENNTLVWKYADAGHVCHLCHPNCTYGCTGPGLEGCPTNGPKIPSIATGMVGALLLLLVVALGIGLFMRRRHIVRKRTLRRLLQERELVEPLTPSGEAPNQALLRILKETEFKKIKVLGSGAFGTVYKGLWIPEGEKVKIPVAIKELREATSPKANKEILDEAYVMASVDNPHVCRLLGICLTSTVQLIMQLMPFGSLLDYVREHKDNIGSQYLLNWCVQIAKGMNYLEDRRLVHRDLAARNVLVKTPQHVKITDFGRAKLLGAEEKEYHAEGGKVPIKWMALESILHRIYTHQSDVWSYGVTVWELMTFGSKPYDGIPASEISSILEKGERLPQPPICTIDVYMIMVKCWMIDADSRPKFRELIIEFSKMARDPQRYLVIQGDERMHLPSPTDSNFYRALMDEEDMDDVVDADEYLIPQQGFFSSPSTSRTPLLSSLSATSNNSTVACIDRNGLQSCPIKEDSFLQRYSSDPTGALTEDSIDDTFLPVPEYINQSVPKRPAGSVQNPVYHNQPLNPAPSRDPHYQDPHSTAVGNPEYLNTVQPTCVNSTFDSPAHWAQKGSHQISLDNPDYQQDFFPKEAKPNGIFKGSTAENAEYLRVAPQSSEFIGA
Outline: as §1

[3] = target: EGFR del19/C797S (Homo sapiens, UniProt P00533, C797S/DEL746-750); test: Biochemical EGFR kinase assay (Lance Ultra TR-FRET), double mutant del19/C797S
Outline: as §1

[4] = target: EGFR L858R/C797S (Homo sapiens, UniProt P00533, C797S/L858R); test: Biochemical EGFR kinase assay (Lance Ultra TR-FRET), double mutant L858R/C797S
EGFR L858R/C797S, sequence (P00533 25-1210 C797S/L858R): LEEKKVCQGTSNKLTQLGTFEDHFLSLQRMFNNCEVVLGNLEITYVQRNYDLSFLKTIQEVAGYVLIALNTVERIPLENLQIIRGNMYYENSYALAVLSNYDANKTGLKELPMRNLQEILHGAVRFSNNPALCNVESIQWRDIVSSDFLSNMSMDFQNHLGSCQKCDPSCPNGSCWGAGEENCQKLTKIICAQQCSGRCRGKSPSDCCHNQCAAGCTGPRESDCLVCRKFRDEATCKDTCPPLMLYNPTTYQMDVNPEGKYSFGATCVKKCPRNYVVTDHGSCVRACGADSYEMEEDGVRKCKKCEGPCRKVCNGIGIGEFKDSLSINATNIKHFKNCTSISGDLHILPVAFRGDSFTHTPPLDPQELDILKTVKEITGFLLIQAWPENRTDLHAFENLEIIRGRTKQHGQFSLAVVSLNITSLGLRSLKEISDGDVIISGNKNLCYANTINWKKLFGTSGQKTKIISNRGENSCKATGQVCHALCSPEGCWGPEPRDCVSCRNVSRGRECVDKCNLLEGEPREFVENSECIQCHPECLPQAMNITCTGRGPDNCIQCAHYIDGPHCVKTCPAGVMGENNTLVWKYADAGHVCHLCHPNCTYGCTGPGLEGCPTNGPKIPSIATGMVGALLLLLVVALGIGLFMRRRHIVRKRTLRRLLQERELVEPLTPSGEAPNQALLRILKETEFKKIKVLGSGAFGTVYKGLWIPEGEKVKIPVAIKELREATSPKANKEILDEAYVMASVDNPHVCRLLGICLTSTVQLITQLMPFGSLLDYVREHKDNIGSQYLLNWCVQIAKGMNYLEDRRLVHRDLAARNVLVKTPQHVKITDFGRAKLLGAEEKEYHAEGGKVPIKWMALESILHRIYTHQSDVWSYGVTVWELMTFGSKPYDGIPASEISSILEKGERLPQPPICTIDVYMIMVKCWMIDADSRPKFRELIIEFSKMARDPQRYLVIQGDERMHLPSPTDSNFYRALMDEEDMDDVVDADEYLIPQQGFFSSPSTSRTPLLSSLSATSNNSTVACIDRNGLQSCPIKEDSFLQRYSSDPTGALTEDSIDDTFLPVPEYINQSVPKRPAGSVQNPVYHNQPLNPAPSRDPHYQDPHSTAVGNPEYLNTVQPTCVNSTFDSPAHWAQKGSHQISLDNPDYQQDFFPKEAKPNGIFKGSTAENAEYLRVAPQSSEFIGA
Outline: as §1

[5] = target: EGFR wildtype (Homo sapiens, UniProt P00533); test: Biochemical EGFR kinase assay (Lance Ultra TR-FRET), wildtype
EGFR wildtype, sequence (P00533 25-1210): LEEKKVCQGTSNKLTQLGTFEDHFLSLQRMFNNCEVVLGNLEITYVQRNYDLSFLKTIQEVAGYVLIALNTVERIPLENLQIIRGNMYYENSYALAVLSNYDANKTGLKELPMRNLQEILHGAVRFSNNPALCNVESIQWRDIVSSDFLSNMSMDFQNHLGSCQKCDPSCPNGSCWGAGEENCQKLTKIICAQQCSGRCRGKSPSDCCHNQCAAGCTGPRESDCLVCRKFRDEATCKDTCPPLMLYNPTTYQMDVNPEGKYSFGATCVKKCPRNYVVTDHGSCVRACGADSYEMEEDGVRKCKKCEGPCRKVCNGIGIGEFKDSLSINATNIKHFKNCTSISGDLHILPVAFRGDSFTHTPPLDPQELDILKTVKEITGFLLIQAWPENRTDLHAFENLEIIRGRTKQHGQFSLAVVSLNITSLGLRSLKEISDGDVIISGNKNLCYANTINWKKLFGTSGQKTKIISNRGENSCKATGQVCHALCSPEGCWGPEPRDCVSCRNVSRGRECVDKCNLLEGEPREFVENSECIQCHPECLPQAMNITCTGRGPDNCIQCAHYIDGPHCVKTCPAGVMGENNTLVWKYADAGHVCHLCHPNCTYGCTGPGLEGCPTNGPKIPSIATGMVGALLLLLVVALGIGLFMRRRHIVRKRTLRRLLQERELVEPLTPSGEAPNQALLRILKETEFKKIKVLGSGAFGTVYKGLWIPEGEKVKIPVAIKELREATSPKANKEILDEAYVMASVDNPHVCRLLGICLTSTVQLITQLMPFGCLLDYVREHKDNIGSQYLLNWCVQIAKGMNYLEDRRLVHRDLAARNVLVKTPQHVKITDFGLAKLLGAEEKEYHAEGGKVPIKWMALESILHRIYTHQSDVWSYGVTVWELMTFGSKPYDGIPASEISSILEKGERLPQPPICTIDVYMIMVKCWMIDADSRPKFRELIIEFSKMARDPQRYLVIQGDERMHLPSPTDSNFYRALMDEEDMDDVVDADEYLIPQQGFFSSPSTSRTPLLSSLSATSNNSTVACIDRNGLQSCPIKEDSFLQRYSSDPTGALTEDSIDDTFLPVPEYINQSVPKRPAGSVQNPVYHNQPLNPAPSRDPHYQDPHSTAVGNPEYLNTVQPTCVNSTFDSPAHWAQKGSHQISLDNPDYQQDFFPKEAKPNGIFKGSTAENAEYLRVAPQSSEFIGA
Outline: as §1

[6] = IC50 del19/T790M/C797S (nM) 100 μM ATP, 100 μM ATP
[7] = Km ATP, read-out: IC50 del19/T790M/C797S (nM) Km ATP
[8] = IC50 L858R/T790M/C797S (nM) 100 μM ATP, 100 μM ATP
[9] = Km ATP, read-out: IC50 L858R/T790M/C797S (nM) Km ATP
[10] = IC50 del19/C797S (nM) 100 μM ATP, 100 μM ATP
[11] = Km ATP, read-out: IC50 del19/C797S (nM) Km ATP
[12] = IC50 L858R/C797S (nM) 100 μM ATP, 100 μM ATP
[13] = Km ATP, read-out: IC50 L858R/C797S (nM) Km ATP
[14] = IC50 WT (nM) 100 μM ATP, 100 μM ATP
[15] = Km ATP, read-out: IC50 WT (nM) Km ATP
[16] = ATP at Km, read-out: IC50 del19/T790M/C797S, Km ATP
[17] = IC50 del19/T790M/C797S, 100 μM ATP
[18] = ATP at Km, read-out: IC50 L858R/T790M/C797S, Km ATP
[19] = IC50 L858R/T790M/C797S, 100 μM ATP
[20] = ATP at Km, read-out: IC50 del19/C797S, Km ATP
[21] = ATP at Km, read-out: IC50 L858R/C797S, Km ATP

EGFR del19/T790M/C797S, sequence (P00533 with tags, fused parts or gaps DEL746-750/T790M/C797S): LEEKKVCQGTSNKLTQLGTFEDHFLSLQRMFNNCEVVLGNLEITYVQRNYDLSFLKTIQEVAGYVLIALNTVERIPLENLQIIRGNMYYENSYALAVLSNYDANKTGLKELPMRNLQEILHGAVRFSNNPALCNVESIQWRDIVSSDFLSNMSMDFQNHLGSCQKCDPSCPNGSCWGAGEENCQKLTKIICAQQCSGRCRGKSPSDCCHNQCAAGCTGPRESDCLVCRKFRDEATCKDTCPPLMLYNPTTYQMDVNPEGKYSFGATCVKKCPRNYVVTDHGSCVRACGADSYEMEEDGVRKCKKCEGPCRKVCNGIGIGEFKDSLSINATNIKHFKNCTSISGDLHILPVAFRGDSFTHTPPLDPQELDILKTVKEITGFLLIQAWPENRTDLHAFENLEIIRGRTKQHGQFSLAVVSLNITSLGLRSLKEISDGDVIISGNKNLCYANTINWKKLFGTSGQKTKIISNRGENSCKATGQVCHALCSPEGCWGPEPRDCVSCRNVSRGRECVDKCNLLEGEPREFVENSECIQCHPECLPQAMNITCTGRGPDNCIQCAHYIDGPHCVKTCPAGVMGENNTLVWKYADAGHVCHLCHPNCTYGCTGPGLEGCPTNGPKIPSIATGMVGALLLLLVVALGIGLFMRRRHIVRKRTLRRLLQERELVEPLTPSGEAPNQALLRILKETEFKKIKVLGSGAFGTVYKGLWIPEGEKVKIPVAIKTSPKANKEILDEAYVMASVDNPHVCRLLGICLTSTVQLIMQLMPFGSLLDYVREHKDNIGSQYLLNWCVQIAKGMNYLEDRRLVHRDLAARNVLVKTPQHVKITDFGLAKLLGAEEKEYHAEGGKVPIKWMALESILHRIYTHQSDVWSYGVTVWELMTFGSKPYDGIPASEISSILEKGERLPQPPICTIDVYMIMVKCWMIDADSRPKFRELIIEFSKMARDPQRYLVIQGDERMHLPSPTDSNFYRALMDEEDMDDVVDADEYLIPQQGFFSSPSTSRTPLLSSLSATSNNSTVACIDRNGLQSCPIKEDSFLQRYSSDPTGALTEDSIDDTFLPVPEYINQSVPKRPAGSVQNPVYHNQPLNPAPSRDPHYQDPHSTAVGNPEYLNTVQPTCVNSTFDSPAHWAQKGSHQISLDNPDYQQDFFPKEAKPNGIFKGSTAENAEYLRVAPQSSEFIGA

IC50 [1, 6] [nM] | IC50 [1, 7] [nM] | IC50 [2, 8] [nM] | IC50 [2, 9] [nM] | IC50 [3, 10] [nM] | IC50 [3, 11] [nM] | IC50 [4, 12] [nM] | IC50 [4, 13] [nM] | IC50 [5, 14] [nM] | IC50 [5, 15] [nM] | IC50 [1, 16] [nM] | IC50 [1, 17] [nM] | IC50 [2, 18] [nM] | IC50 [2, 19] [nM] | IC50 [3, 20] [nM] | IC50 ([3]; IC50 del19/C797S, 100 μM ATP) [nM] | IC50 [4, 21] [nM] | IC50 ([4]; IC50 L858R/C797S, 100 μM ATP) [nM] | IC50 ([5]; IC50 WT, 100 μM ATP) [nM] | IC50 ([5]; ATP at Km, read-out: IC50 WT, Km ATP) [nM] | Structure (SMILES)
 | 0.3 |  | 0.1 |  | 9.7 |  | 4.3 |  | 7.4 |  |  |  |  |  |  |  |  |  |  | CC(C)Nc1cc(Nc2ccnc(-c3cnn(S(=O)(=O)C4CC4)c3)n2)ncc1-c1cnc(OCCN(C)C)cn1 [Example 122, N^2-(2-(1-(Cyclopropylsulfonyl)-1H-pyrazol-4-yl)pyrimidin-4-yl)-5-(5-(2-(dimethylamino)ethoxy)pyrazin-2-yl)-N^4-isopropylpyridine-2,4-diamine]
 |  |  |  |  |  |  |  |  |  | 0.8 | 1.3 | 0.2 | 0.9 | 0.7 | 2 | 0.6 | 2.1 | 141 |  | CC(C)(O)c1ccc(-c2cnc(Nc3ccnc(-c4cnn(S(=O)(=O)C5CC5)c4)n3)cc2N[C@H]2CC[C@@H](CO)CC2)nc1 [Example 170, 2-(6′-((2-(1-(Cyclopropylsulfonyl)-1H-pyrazol-4-yl)pyrimidin-4-yl)amino)-4′-(((1s,4s)-4-(hydroxymethyl)cyclohexyl)amino)-[2,3′-bipyridin]-5-yl)propan-2-ol]
 |  |  |  |  |  |  |  |  |  | 1.9 | 2.9 | 0.5 | 1 | 5.6 | 14.3 | 12.2 | 64.9 | > 10000 | 19.3 | O=S(=O)(C1CC1)n1cc(-c2nccc(Nc3cc(N[C@H]4CCC[C@H](CO)C4)c(-c4ccc(C(O)C(F)(F)F)cn4)cn3)n2)cn1 (stereo partly drawn) [Example 228, 1-(6′-((2-(1-(Cyclopropylsulfonyl)-1H-pyrazol-4-yl)pyrimidin-4-yl)amino)-4′-(((1S,3S)-3-(hydroxymethyl)cyclohexyl)amino)-[2,3′-bipyridin]-5-yl)-2,2,2-trifluoroethan-1-ol]

Second part, the compound before the results:

Structure (SMILES) | IC50 [1, 6] [nM] | IC50 [1, 7] [nM] | IC50 [2, 8] [nM] | IC50 [2, 9] [nM] | IC50 [3, 10] [nM] | IC50 [3, 11] [nM] | IC50 [4, 12] [nM] | IC50 [4, 13] [nM] | IC50 [5, 14] [nM] | IC50 [5, 15] [nM] | IC50 [1, 16] [nM] | IC50 [1, 17] [nM] | IC50 [2, 18] [nM] | IC50 [2, 19] [nM] | IC50 [3, 20] [nM] | IC50 ([3]; IC50 del19/C797S, 100 μM ATP) [nM] | IC50 [4, 21] [nM] | IC50 ([4]; IC50 L858R/C797S, 100 μM ATP) [nM] | IC50 ([5]; IC50 WT, 100 μM ATP) [nM] | IC50 ([5]; ATP at Km, read-out: IC50 WT, Km ATP) [nM]
O=S(=O)(C1CC1)n1cc(-c2nccc(Nc3cc(N[C@H]4CC[C@@H](CO)CC4)c(-c4cc(CN5CCC(F)(F)CC5)ccn4)cn3)n2)cn1 [Example 113, ((1s,4s)-4-((6′-((2-(1-(Cyclopropylsulfonyl)-1H-pyrazol-4-yl)pyrimidin-4-yl)amino)-4-((4,4-difluoropiperidin-1-yl)methyl)-[2,3′-bipyridin]-4′-yl)amino)cyclohexyl)methanol] | 5.3 | 7.5 | 3.2 | 2.3 | 19.9 | 11 | 20.8 | 8.8 | > 10000 | 15 |  |  |  |  |  |  |  |  |  | 
CN(C)C[C@H]1CC[C@@H](Nc2cc(Nc3ccnc(-c4cnn(S(=O)(=O)C5CC5)c4)n3)ncc2-c2cc(C(F)F)ccn2)CC1 [Example 79, N^6′-(2-(1-(Cyclopropylsulfonyl)-1H-pyrazol-4-yl)pyrimidin-4-yl)-4-(difluoromethyl)-N^4′-((1s,4s)-4-((dimethylamino)methyl)cyclohexyl)-[2,3′-bipyridine]-4′,6′-diamine] | 0.5 | 0.8 | 0.5 | 0.3 | 0.6 | 0.4 | 4.7 | 0.7 | 450 | 1.4 |  |  |  |  |  |  |  |  |  | 
CN1CCN(Cc2ccc(-c3cnc(Nc4ccnc(-c5cnn(S(=O)(=O)C6CC6)c5)n4)cc3N[C@H]3CC[C@](O)(CO)CC3)nc2)CC1 [Example 11, (1s,4s)-4-((6′-((2-(1-(Cyclopropylsulfonyl)-1H-pyrazol-4-yl)pyrimidin-4-yl)amino)-5-((4-methylpiperazin-1-yl)methyl)-[2,3′-bipyridin]-4′-yl)amino)-1-(hydroxymethyl)cyclohexan-1-ol] | 0.1 |  | 0.2 | 0.1 | 0.4 | 0.2 | 2.1 | 0.4 | 586 | 1.4 |  |  |  |  |  |  |  |  |  | 
